Experimental data as given in PMC7411887, “New Paracyclophanylthiazoles with Anti-Leukemia Activity: Design, Synthesis, Molecular Docking, and Mechanistic Studies” (Molecules, 2020).

Key:
Experiment in all cases: NCI single-dose screen (SRB)
Assay type in all cases: cell-based
786-0 = details: Homo sapiens; Renal Cancer 786-0; 10^−5 M; read-out: Growth inhibition percentage
Procedure: (§1) The methodology of the NCI anticancer screening was described in detail elsewhere (http://www.dtp.nci.nih.gov). […] Tested compounds were added to the culture at a single concentration (10^−5 M) and the cultures were incubated for 48 h. End-point determinations were made with a protein binding dye, SRB. Results for each tested compound were reported as the percentage growth of the treated cells when compared to the untreated control cells. The percentage growth was evaluated spectrophotometrically versus controls not treated with test agents. All experiments were repeated three times (Table 1).
(§2) Briefly, the protocol was performed on 60 human tumor cell lines derived from different nine neoplastic diseases. […] If the results obtained met selection criteria, then the compound was tested again on all 60 cell lines in 5× 10-fold dilutions with the top dose being 10^−4 M or 150 μg/mL. Detailed methods are described in the Supplementary Materials related to this article.
(§3) on their site (http://www.dtp.nci.nih.gov). But briefly, the protocol performed at sixty human
(§4) National Cancer Institute, Bethesda, USA. If the results obtained meet selection criteria, then the
(§5) 10-4 molar or 150 μg/mL. […]

A498 = details: Homo sapiens; Renal Cancer A498; 10^−5 M; read-out: Growth inhibition percentage
Procedure: as §1, §2, §3, §4, §5

A549/ATCC = details: Homo sapiens; Non-Small-Cell Lung Cancer A549/ATCC; 10^−5 M; read-out: Growth inhibition percentage
Procedure: as §1, §2, §3, §4, §5

ACHN = details: Homo sapiens; Renal Cancer ACHN; 10^−5 M; read-out: Growth inhibition percentage
Procedure: as §1, §2, §3, §4, §5

EKVX = details: Homo sapiens; Non-Small-Cell Lung Cancer EKVX; 10^−5 M; read-out: Growth inhibition percentage
Procedure: as §1, §2, §3, §4, §5

HOP-62 = details: Homo sapiens; Non-Small-Cell Lung Cancer HOP-62; 10^−5 M; read-out: Growth inhibition percentage
Procedure: as §1, §2, §3, §4, §5

HS 578T = details: Homo sapiens; Breast Cancer HS 578T; 10^−5 M; read-out: Growth inhibition percentage
Procedure: as §1, §2, §3, §4, §5

K-562 = details: Homo sapiens, K562; Leukemia K-562; 10^−5 M; read-out: Growth inhibition percentage
Procedure: as §1, §2, §3, §4, §5

KM12 = details: Homo sapiens; Colon Cancer KM12; 10^−5 M; read-out: Growth inhibition percentage
Procedure: as §1, §2, §3, §4, §5

LOX IMVI = details: Homo sapiens; Melanoma LOX IMVI; 10^−5 M; read-out: Growth inhibition percentage
Procedure: as §1, §2, §3, §4, §5

MCF7 = details: Homo sapiens; Breast Cancer MCF7; 10^−5 M; read-out: Growth inhibition percentage
Procedure: as §1, §2, §3, §4, §5

MDA-MB-231/ATCC = details: Homo sapiens; Breast Cancer MDA-MB-231/ATCC; 10^−5 M; read-out: Growth inhibition percentage
Procedure: as §1, §2, §3, §4, §5

MDA-MB-435 = details: Homo sapiens; Melanoma MDA-MB-435; 10^−5 M; read-out: Growth inhibition percentage
Procedure: as §1, §2, §3, §4, §5

MDA-MB-468 = details: Homo sapiens; Breast Cancer MDA-MB-468; 10^−5 M; read-out: Growth inhibition percentage
Procedure: as §1, §2, §3, §4, §5

MOLT-4 = details: Homo sapiens; Leukemia MOLT-4; 10^−5 M; read-out: Growth inhibition percentage
Procedure: as §1, §2, §3, §4, §5

NCI-H226 = details: Homo sapiens; Non-Small-Cell Lung Cancer NCI-H226; 10^−5 M; read-out: Growth inhibition percentage
Procedure: as §1, §2, §3, §4, §5

NCI-H23 = details: Homo sapiens; Non-Small-Cell Lung Cancer NCI-H23; 10^−5 M; read-out: Growth inhibition percentage
Procedure: as §1, §2, §3, §4, §5

NCI-H322M = details: Homo sapiens; Non-Small-Cell Lung Cancer NCI-H322M; 10^−5 M; read-out: Growth inhibition percentage
Procedure: as §1, §2, §3, §4, §5

NCI-H460 = details: Homo sapiens; Non-Small-Cell Lung Cancer NCI-H460; 10^−5 M; read-out: Growth inhibition percentage
Procedure: as §1, §2, §3, §4, §5

NCI/ADR-RES = details: Homo sapiens; Ovarian Cancer NCI/ADR-RES; 10^−5 M; read-out: Growth inhibition percentage
Procedure: as §1, §2, §3, §4, §5

OVCAR-3 = details: Homo sapiens; Ovarian Cancer OVCAR-3; 10^−5 M; read-out: Growth inhibition percentage
Procedure: as §1, §2, §3, §4, §5

OVCAR-8 = details: Homo sapiens; Ovarian Cancer OVCAR-8; 10^−5 M; read-out: Growth inhibition percentage
Procedure: as §1, §2, §3, §4, §5

SK-MEL-2 = details: Homo sapiens; Melanoma SK-MEL-2; 10^−5 M; read-out: Growth inhibition percentage
Procedure: as §1, §2, §3, §4, §5

SK-OV-3 = details: Homo sapiens; Ovarian Cancer SK-OV-3; 10^−5 M; read-out: Growth inhibition percentage
Procedure: as §1, §2, §3, §4, §5

SN12C = details: Homo sapiens; Renal Cancer SN12C; 10^−5 M; read-out: Growth inhibition percentage
Procedure: as §1, §2, §3, §4, §5

SNB-19 = details: Homo sapiens; CNS Cancer SNB-19; 10^−5 M; read-out: Growth inhibition percentage
Procedure: as §1, §2, §3, §4, §5

SW-620 = details: Homo sapiens; Colon Cancer SW-620; 10^−5 M; read-out: Growth inhibition percentage
Procedure: as §1, §2, §3, §4, §5

TK-10 = details: Homo sapiens; Renal Cancer TK-10; 10^−5 M; read-out: Growth inhibition percentage
Procedure: as §1, §2, §3, §4, §5

U251 = details: Homo sapiens, U-251; CNS Cancer U251; 10^−5 M; read-out: Growth inhibition percentage
Procedure: as §1, §2, §3, §4, §5

UACC-257 = details: Homo sapiens; Melanoma UACC-257; 10^−5 M; read-out: Growth inhibition percentage
Procedure: as §1, §2, §3, §4, §5

SMILES	inhibition at 10 µM (786-0) [%]	inhibition at 10 µM (A498) [%]	inhibition at 10 µM (A549/ATCC) [%]	inhibition at 10 µM (ACHN) [%]	inhibition at 10 µM (EKVX) [%]	inhibition at 10 µM (HOP-62) [%]	inhibition at 10 µM (HS 578T) [%]	inhibition at 10 µM (K-562) [%]	inhibition at 10 µM (KM12) [%]	inhibition at 10 µM (LOX IMVI) [%]	inhibition at 10 µM (MCF7) [%]	inhibition at 10 µM (MDA-MB-231/ATCC) [%]	inhibition at 10 µM (MDA-MB-435) [%]	inhibition at 10 µM (MDA-MB-468) [%]	inhibition at 10 µM (MOLT-4) [%]	inhibition at 10 µM (NCI-H226) [%]	inhibition at 10 µM (NCI-H23) [%]	inhibition at 10 µM (NCI-H322M) [%]	inhibition at 10 µM (NCI-H460) [%]	inhibition at 10 µM (NCI/ADR-RES) [%]	also measured
COC(=O)C=C1SC(=NNC(=O)c2cc3ccc2CCc2ccc(cc2)CC3)N(c2ccccc2)C1=O [Compound 3a]	100	50.8	30.9	30.7	41	97	22.1	73	91.5	128	76.8	67.5	10.4	100	97	26.2	59.6	31.5	39.4	68.6	inhibition at 10 µM (OVCAR-3): 106%; inhibition at 10 µM (OVCAR-8): 59.3%; inhibition at 10 µM (SK-MEL-2): 13%; inhibition at 10 µM (SK-OV-3): 0%; inhibition at 10 µM (SN12C): 77.5%; inhibition at 10 µM (SNB-19): 60.1%; inhibition at 10 µM (SW-620): 92.6%; inhibition at 10 µM (TK-10): 84.8%; inhibition at 10 µM (U251): 84.2%; inhibition at 10 µM (UACC-257): 30.8%
COC(=O)C=C1SC(=NNC(=O)c2cc3ccc2CCc2ccc(cc2)CC3)N(Cc2ccccc2)C1=O [Compound 3b]	50.5	53.9	22.9	34.2	22.3	22.8	12.6	81.1	34.9	93.8	67.3	43.2	8.44	78.9	98.9	35.2	22.6	6.7	6.29	29.6	inhibition at 10 µM (OVCAR-3): 79.7%; inhibition at 10 µM (OVCAR-8): 28%; inhibition at 10 µM (SK-MEL-2): 14.4%; inhibition at 10 µM (SK-OV-3): 0%; inhibition at 10 µM (SN12C): 38.8%; inhibition at 10 µM (SNB-19): 43.1%; inhibition at 10 µM (SW-620): 81.8%; inhibition at 10 µM (TK-10): 4.53%; inhibition at 10 µM (U251): 45%; inhibition at 10 µM (UACC-257): 19%
COC(=O)C=C1SC(=Nc2cccnc2)N(NC(=O)c2cc3ccc2CCc2ccc(cc2)CC3)C1=O [Compound 3c, Methyl (E)-2-((E)-3-[2.2]paracyclophanyl)amido-4-oxo-2-(pyridin-3-ylimino)-thiazolidin-5-ylidene)acetate]	8.52	3.59	2.04	11	2.61	4	0	20.7	7.32	9.78	26.8	10.6	0	18	21.9	7.48	9.18	1.72	0.75	4.7	inhibition at 10 µM (OVCAR-3): 4.51%; inhibition at 10 µM (OVCAR-8): 1.51%; inhibition at 10 µM (SK-MEL-2): 0%; inhibition at 10 µM (SK-OV-3): 0%; inhibition at 10 µM (SN12C): 8.87%; inhibition at 10 µM (SNB-19): 16.6%; inhibition at 10 µM (SW-620): 10.8%; inhibition at 10 µM (TK-10): 0%; inhibition at 10 µM (U251): 14.7%; inhibition at 10 µM (UACC-257): 0.83%
C=CCN1C(=O)C(=CC(=O)OC)SC1=NNC(=O)c1cc2ccc1CCc1ccc(cc1)CC2 [Compound 3d]	8.77	12.1	5.2	12.2	9.16	0	6.41	48.1	18.4	21.2	48.5	2.27	0	23.7	64.5	12.4	11.8	2.94	0	10.5	inhibition at 10 µM (OVCAR-3): 13.6%; inhibition at 10 µM (OVCAR-8): 11.8%; inhibition at 10 µM (SK-MEL-2): 2.7%; inhibition at 10 µM (SK-OV-3): 0%; inhibition at 10 µM (SN12C): 13.1%; inhibition at 10 µM (SNB-19): 15.3%; inhibition at 10 µM (SW-620): 55.5%; inhibition at 10 µM (TK-10): 0%; inhibition at 10 µM (U251): 18.2%; inhibition at 10 µM (UACC-257): 8.89%
